Here are results for four molecules from PMC9607282 (Pharmaceutics, 2022).

A short description of series [1]: Pharmacokinetics in plasma and PELF of healthy pigs after intramuscular injection. As to conditions: for T 1/2λ / AUC(0-t) / Cmax / Tmax / MRT last: n = 6; for AUC(0-t) / Cmax / Tmax / MRT last: pig, im; for AUC(0-t): AUC 24h; for MRT last: read-out: MRT 24h. It is filed as in vivo. Here is the method: (§1) Twenty-four pigs were randomly divided into 4 groups with 3 healthy groups and 1 infected group. […] The infected group was infected with G. parasuis H78 for 3 days.
(§2) Add 3 mL of a mixture of dichloromethane and acetonitrile, and vortex centrifuge for 5 min at 10,000 rpm for 10 min. Remove the supernatant into a 10 mL centrifuge tube. Add 3 mL of dichloromethane and acetonitrile to the residue. Extract once again as described above. Combine the supernatant twice, and dissolve the residue with 1 mL of the initial mobile phase. Vortex to mix. Add 1 mL of n-hexane, remove the n-hexane layer (upper layer) to achieve the purpose of degreasing, and then use a 0.22-μm filter membrane to obtain a sample purification solution.
(§3) A C18 reverse phase column (250 mm × 4.6 mm, i.d., 5 µm, Agilent, Santa Clara, CA, USA) was used for HPLC, which was executed at a detection wavelength of 270 nm at 25 °C. The mobile phase comprised 0.1% trifluoroacetic acid (phase A) and 100% methanol (phase C) with a mobile phase flow rate of 1 mL/min.
(§4) The urea dilution method was used to determine the volume of PELF as described previously. The concentration of urea and PELF were determined by the urease-glutamate dehydrogenase enzymatic method with an automatic biochemical analyzer (SYNCHRON CX4 PRO; Beckman, Brea, CA, USA) at the National Reference Laboratory of Veterinary Drug Residues (Wuhan, China).

For series [2], the system named is G. parasuis H78. Kind of series: Post-antimicrobial effect (PAE). Format: cell-based, Glaesserella parasuis. The procedure: (§5) The MIC and MBC of G. parasuis H78 in broth and pulmonary epithelial lining fluid (PELF) were determined by the broth dilution method according to the CLSI M07-A9 standard with some modifications. The MPC of G. parasuis H78 in broth was determined by the agar dilution method recommended by CLSI M07-A9. The post-antimicrobial effect (PAE) was determined by the method of bacterial and drug removal after incubation.

Series [3] in a line: Adverse reactions after single intramuscular injection in pigs. As to conditions: single dose ADP 5, SMZ 25, ADP/SMZ 5/25 mg/kg b.w. Here is the method: as §1
A single dose of 5 mg/kg b.w., 25 mg/kg b.w., and 5/25 mg/kg b.w.

Series [4] concerns G. parasuis H78. Kind of series: PK-PD integration, sigmoid Emax model on ex vivo time killing in PELF. Format: cell-based, Glaesserella parasuis. As to conditions: ADP/SMZ injection 5/25 mg/kg b.w. i.m. The procedure: The association between antimicrobial efficiency and the ex vivo PK-PD parameters of AUC0−24h/MIC ratios was simulated by using the model of Emax inhibitory Sigmoid.

Series [5] can be described thus: Pharmacokinetics in plasma and PELF of pigs infected with G. parasuis H78 after intramuscular injection. Format: in vivo. As to conditions: for T 1/2λ: infected group, ADP/SMZ injection 5/25 mg/kg b.w. i.m., n = 6; for Tmax: pig, im. The procedure: as §1, §2, §3, §4
The conditions of series [6]: six-month-old castrated boar ref 22; cited from earlier work.
Series [7] relates to G. parasuis H78. Kind of series: Mutant prevention concentration (MPC), agar dilution. It is filed as cell-based, Glaesserella parasuis. Here is the method:
as §5
A general note: In agar dilution, organisms are placed on agar that contains the substance at set levels.

Series [8] concerns E. coli (ATCC 25922). Kind of series: MIC quality control, agar dilution (CLSI M07-A9). Format: cell-based. As to conditions: Escherichia coli, ATCC25922, quality control strain. The text has this:
E. coli (ATCC 25922) and chloramphenicol were used as quality control, and the experimental results were only valid when the MIC was within the quality control range.

[9] abbreviates: PELF, PELF, healthy group, ADP/SMZ injection 5/25 mg/kg b.w. i.m.
Setting [10] is: PELF, PELF, healthy pigs, single drug i.m.: ADP 5 mg/kg b.w., SMZ 25 mg/kg b.w.
Where [11] appears, read: plasma, plasma, healthy group, ADP/SMZ injection 5/25 mg/kg b.w. i.m.
Where [12] appears, read: plasma, plasma, healthy pigs, single drug i.m.: ADP 5 mg/kg b.w., SMZ 25 mg/kg b.w.

≈ marks a conversion by molar mass, not a printed value. Like-named read-outs stand apart in the source and are kept apart here. Some results are limits rather than exact numbers.

A word on the AUC(0-t): it is the area under the concentration-time curve up to a stated or last time point. Low readings indicate less exposure, high ones more exposure. A word on the Cmax: it is the highest concentration seen after dosing. A word on the Tmax: it is the time at which the peak concentration occurs. Consider `COc1cc(Cc2cnc(N)nc2N)cc(OC)c1N(C)C` [ADP, Aditoprim], for which, in series [1] (LOD 0.05 µg/mL, HPLC), the “concentration in PELF after 36 h” value is recorded as “below LOD”. In addition, the “concentration in plasma after 24 h” value in series [1] (LOD 0.05 µg/mL, HPLC) is listed as “below LOD”. The “T 1/2λ” value in series [1] (PELF, healthy group, ADP/SMZ injection 5/25 mg/kg b.w. i.m.) stood at 6.05 ± 0.20 h; in series [1] (PELF, healthy pigs, single drug i.m.: ADP 5 mg/kg b.w., SMZ 25 mg/kg b.w.), 6.42 ± 0.43 h; in series [1] (plasma, healthy group, ADP/SMZ injection 5/25 mg/kg b.w. i.m.), 7.97 ± 0.81 h; in series [1] (plasma, healthy pigs, single drug i.m.: ADP 5 mg/kg b.w., SMZ 25 mg/kg b.w.) it was 8.8 ± 0.53 h; in series [5] (PELF), 6.48 ± 0.62 h; in series [5] (plasma), 8.45 ± 0.61 h. For the same molecule, the AUC(0-t) in series [1] (setting [9]) worked out at 49100 ± 520 ng·h/mL; in series [1] (setting [10]) it was 44800 ± 540 ng·h/mL; in series [1] (setting [11]) it was 7710 ± 260 ng·h/mL; in series [1] (setting [12]), 7590 ± 240 ng·h/mL. In addition, the maximum concentration (Cmax) in series [1] (setting [9]) came to 6780 ± 110 ng/mL; in series [1] (setting [10]), 6880 ± 140 ng/mL; in series [1] (setting [11]), 870 ± 90 ng/mL; in series [1] (setting [12]), 920 ± 80 ng/mL. For the same molecule, the Tmax in series [1] (setting [9]) was 1.95 ± 0.06 h; in series [1] (setting [10]), 2 h; in series [1] (setting [11]), 2 h; in series [1] (setting [12]), 1 h; in series [5] (PELF), 1.96 ± 0.05 h; in series [5] (plasma), 2 h. Also, the MRT last in series [1] (setting [9]) was determined as 6.88 ± 0.11 h; in series [1] (setting [10]), 6.43 ± 0.09 h; in series [1] (setting [11]), 7.76 ± 0.26 h; in series [1] (setting [12]), 7.63 ± 0.27 h. Besides, the PAE in series [2] (1 × MIC, exposure 1 h) came to 0.02 h; in series [2] (1 × MIC, exposure 2 h) it was 0.40 h; in series [2] (2 × MIC, exposure 1 h) it was 0.11 h; in series [2] (2 × MIC, exposure 2 h) it was 0.43 h; in series [2] (4 × MIC, exposure 1 h) it was 0.20 h; in series [2] (4 × MIC, exposure 2 h) it was 0.48 h. In series [3], the “adverse reactions after intramuscular injection” value is “No serious adverse reactions”. The “(AUC24h/MIC)ex (E = 0)” value turned out to be 32.25 h in series [4] (healthy group) and 27.19 h in series [4] (infected group). For the same molecule, the “(AUC24h/MIC)ex (E = −3)” value is reported as 113.28 h in series [4] (healthy group) and 102.29 h in series [4] (infected group). Further, the “(AUC24h/MIC)ex (E = −4)” value is 221.41 h in series [4] (healthy group) and 204.17 h in series [4] (infected group). Also, the figures for the “E 0” value in series [4] (healthy group) and in series [4] (infected group) were −4.78 Log10CFU/mL and −4.8 Log10CFU/mL, respectively. Moreover, the “EC 50 (AUC0−24h/MIC giving 50% of Emax)” value is 56.4 h in series [4] (healthy group) and 48.06 h in series [4] (infected group). For the same molecule, the Emax in series [4] (healthy group) came out at 2.07 Log10CFU/mL; in series [4] (infected group), 2.15 Log10CFU/mL. The “Emax − E0” value in series [4] (healthy group) stood at 6.85 Log10CFU/mL; in series [4] (infected group), 6.95 Log10CFU/mL. The “N (Hill coefficient)” value stood at 1.5 in series [4] (healthy group) and 1.41 in series [4] (infected group). The apparent distribution volume in series [6] is reported as more than 1.4 L/kg. Further, in series [6], the elimination half-life was more than 2.25 h. The molecule further registered an MPC in series [7] of 20 µg/mL.
As to `Cc1cc(NS(=O)(=O)c2ccc(N)cc2)no1` [SMZ, Sulfamethoxazole, reference compound], the “adverse reactions after intramuscular injection” value in series [3] is recorded as “No serious adverse reactions”. Also, in series [4] (healthy group), the “E 0” value is −4.4 Log10CFU/mL, the Emax came to 2.3 Log10CFU/mL, the “Emax − E0” value came out at 6.7 Log10CFU/mL and the “N (Hill coefficient)” value came to 1.56. Also, in series [4] (infected group), the “E 0” value was −4.55 Log10CFU/mL, the Emax is recorded as 2.36 Log10CFU/mL and the “N (Hill coefficient)” value stood at 1.52.
`COc1cc(Cc2cnc(N)nc2N)cc(OC)c1OC` [TMP, trimethoprim, reference compound]: in series [6], the apparent distribution volume is reported as 1.4 L/kg and the elimination half-life is given as 2.25 h.
The term MIC denotes the least concentration at which growth counts as inhibited. Low values mean a more susceptible organism, high ones a less susceptible organism. Consider `O=C(N[C@H](CO)[C@H](O)c1ccc([N+](=O)[O-])cc1)C(Cl)Cl` [chloramphenicol], for which the MIC in series [8] is 4 µg/mL (≈ 12.4 µM).
